Source: patent publication US9011853B2, “B7-H4 fusion proteins and methods of use thereof” (Amplimmune, Inc., priority 2009, dated 2015)
Several values for one entry are separate records, joined by “and”; a condition that tells them apart may be missing. Equal values may be shown once.

Tests used:
[1] = tested on: CD4^+CD62L^+ naïve T cells; assay: Mouse Th17 assay, IL-17A ELISA; format: cell-based
Method: CD4^+CD62L^+ naïve T cells were isolated from BALB/c mice as in the above examples, and activated by anti-CD3 and anti-CD28 bound beads in the presence of Th17 differntiation cocktail (TGF-β1 (10 ng/mL), IL-6 (50 ng/mL), IL-23 (4 ng/mL), anti-IL-4 (10 μg/mL), anti-IFN-γ (5 μg/mL) and anti-IL-2 (5 μg/mL)). Murine B7-H4-Ig (10 μg/mL) or retinoic acid (RA) (10 μM) was added to the cultures on day 0, day 1, or day 2 of the 4 day culture. IL-17A levels were measured by ELISA at the end of the 4 day culture.
The Th17 assay is 4 days in duration. In order to determine when B7-H4-Ig is acting, the Th17 assay was performed with the addition of 10 μg/mL of murine B7-H4-Ig, 10 μg/mL of mouse IgG control, or […] retinoic acid on Day 0, Day 1, or Day 2.
Peripheral T cells were obtained from spleens and inguinal lymph nodes of 6-9 week old BALB/c mice by mechanical disruption through a cell strainer followed by red blood cell (RBC) lysis.
Naïve helper T cells (CD4^+CD62L^+) were obtained using the Miltenyi Biotec microbead system. CD4^+ cells are enriched by negative selection, and followed by a positive selection of CD62L^+. In some experiments CD25+ cells were also depleted.
After selection, cells are activated in vitro with anti-CD3/CD28 beads at a 1:1 cell:bead ratio in the presence of the TH17 differentiation cocktail (TGF-β1 (10 ng/ml), IL-6 (50 ng/ml), IL-23 (4 ng/ml), anti-IL-2 (5 μg/ml), anti-IL-4 (10 μg/ml), and anti-IFN-γ (5 μg/ml)). Murine B7-H4-Ig is added at a final concentration of 1.25-20 μg/ml. Retinoic acid (RA) is used as positive control and mouse IgG is used as a negative control.
After 4 days of culture, cultures are spun down and supernatants are harvested and stored at <−65° C. until analyzed for IL-17A levels by ELISA.

MRL/lpr mice = assay: MRL/lpr lupus mouse model, anti-dsDNA autoantibody ELISA; format: in vivo; conditions: individual MRL/lpr mouse, plasma diluted 1:2000
Method: MRL/lpr mice at 4 weeks of age were used in this experiment. Animals were tagged with metal tags on their right ears for identification. […] In the proof-of-concept study, combination treatments with recombinant murine B7-H4-Ig and CTX were tested. Mice received single or combination treatment of murine B7-H4-Ig (Lot#DEV-110-5-006) at 5 mg/kg with or without CTX at 50 mg/kg via IP injection, once every 2 weeks (FIG. 59). Murine B7-H4-Ig dosing regimen at 5 mg/kg (100 μg/mouse/injection), twice a week, was chosen based on in vivo studies of monoclonal antibody and fusion proteins. […] Blood samples ([…]) were taken from the submandibular vein (ARC SOP 8050.02.08) 3 days before the protein treatment and the every other week during and after treatments. Blood samples were collected in Microtainer® Blood Collection Tubes, and plasma was harvested from the supernatant of blood sample after centrifugation and stored at −80° C. freezer until use.
A positive anti-dsDNA autoantibody control was generated by pooling plasma from 5 aged MRL/lpr mice, approximately 8 months of age. The positive control plasma was aliquoted and stored at −80° C. freezer before use.
The dsDNA solution (10 mg/mL) was first generated by dissolving salmon testes DNA in PBS at 37° C. in a water bath followed by filtration through a 0.45 μm membrane filter. The dsDNA solution was aliquoted and stored at −80° C. before use.
On the day prior to the autoantibody ELISA, 100 μL of the dsDNA stock solution was first added to 10 mL of PBS resulting in a final concentration of 100 μg/ml. […] of the diluted dsDNA was then added to each well of Immulon 2HB 96-well flat bottom microtiter plates. Plates were placed in a humidified incubator at 37° C. without lids for overnight coating. Plates were washed 4 times with 300 μL of PBS/T [0.1% (v/v) Tween-20 (polysorbate 20) in PBS] using a microtiter plate washer (hydroFLEX, TECAN. Software: HydroControl) and then blocked with 200 μL of blocking buffer (10% fetal bovine serum in PBS) at room temperature for at least 1 h followed by 4 washes with 300 μL of PBS/T. The negative control (normal Balb/C mouse plasma, 1:2000 dilution), positive controls (1:5000, 1:10000, 1:20000 dilutions), and samples (1:2000 dilution) were diluted with blocking buffer. Next, 100 μL of each diluted control and sample was added to corresponding wells (duplicate wells) and incubated at room temperature for 2 h or at 4° C. overnight followed by 4 washes with 300 μL of PBS/T. For detection, 100 μL of anti-mouse IgG-HRP (Sigma, A9309, diluted to 1:10000 in blocking buffer) was added to each well and the plate was incubated at room temperature for 1 h followed by 4 washes with 400 μL of PBS/T.
Later, 100 μL of room temperature, pre-warmed TMB Substrate Reagent was added to each well. When the color developed optimally (about 10 min), 100 μL of stop solution (1% sulfuric acid) was added. The plate was then read for absorbance at 450 nm (OD450) using a microtiter plate reader (SPECTRAmax, Molecular Devices. Software: SoftMax Pro5.2).
All the blood samples were analyzed at the end of the study. The OD450 value of test samples was normalized relatively to the internal positive control at the 1:10000 dilution. The relative value rather than the absolute Ab concentration was used for comparison.
Female MRL/lpr mice at age of 4 weeks were divided into 4 groups (FIG. 59): vehicle, CTX alone, murine B7-H4-Ig alone and CTX plus murine B7-H4-Ig combination treatment (Combo). CTX was given IP, 50 mg/kg, once every 2 weeks. Murine B7-H4-Ig was administrated IP, 100 μg (5 mg/kg), and twice every week. The Combo group received CTX injection every 2 weeks and murine B7-H4-Ig 2 times every week at 5 mg/kg. Mice were treated for 7 weeks.
Plasma was collected from MRL/lpr mice pre-treatment (4 wk) and periodically up to 21 weeks of age.

DBA/1 mice [2] = assay: Therapeutic CIA study AA#80 (male mice), disease score; format: in vivo, mouse; conditions: individual mice (Tag #)
Method: (§1) DBA/1 mice (10 per group) aged 7-9 weeks were used for the CIA model. Mice from several vendors (Jackson Laboratories, Harlan Laboratories, and Taconic Farms) were tested and it was determined that Taconic mice are most appropriate for the CIA studies. Taconic mice develop more consistent and severe disease symptoms and show continued disease progression, while mice from the other vendors often show stable, less severe disease, even in the absence of treatment. female (F) mice in AA#79 and male (M) mice in AA#80, were tested to determine which gender to use in future experiments.
(§2) On the day before the study is initiated, the hair on the right flank of each mouse was removed using an electric clipper. A metal identification tag was placed on the right ear of each mouse. On Day 0, mice were immunized with 100 μL of chicken collagen type II/Complete Freund's Adjuvant (CII/CFA) emulsion in the right flank. On Day 20, the hair on the left flank of each mouse was removed using an electric clipper, and on Day 21, mice were immunized with 100 μL of chicken collagen type II/Incomplete Freund's Adjuvant (CII/IFA) emulsion in the left flank. Pre-filled syringes of CII/CFA and CII/IFA emulsion purchased from Hooke Laboratories were used to ensure consistent dosing with and potency of the immunogen.
(§3) Early arthritis symptoms, such as erythema and mild swelling, usually appear on Day 21, and on Day 28, more severe symptoms such as swelling in many digits and inflammation extending to the tarsal joint are typically present. Each limb is evaluated for severity of arthritis symptoms three times a week using a widely accepted arthritis severity score system, shown in Table 2. The scores from each of the 4 limbs are summed to yield the disease score of each mouse. […]
(§4) Treatment was initiated when the average disease score for the study animals was greater than four. This corresponded to Day 29 in AA#79 and Day 24 in […]. By waiting until animals are symptomatic, it was ensured that the model is performed in a therapeutic rather than prophylactic mode.
(§5) B7-H4-Ig, RPA110010, and murine B7-H4-Ig proteins were administered by intraperitoneal (IP) injection 3 times a week for a total of 8 doses. RPA110010 is an extracellular domain variant of B7-H4-Ig, SEQ ID NO:126. Control murine and human IgG proteins were given once a week for a total of 3 doses. […] All proteins were diluted to the desired concentration (500 μg in 500 μL, or 1 mg/mL) with sterile PBS immediately before injection. Vehicle control mice receive Amplimmune formulation buffer diluted 1:10 in PBS, with an injection volume of 500 μL.

DBA/1 mice [3] = assay: Therapeutic CIA study AA#79 (female mice), disease score; format: in vivo, mouse
Method: as §1, §2, §3, §4, §5

## CC1=C(/C=C/C(C)=C/C=C/C(C)=C/C(=O)O)C(C)(C)CCC1 [RA, All trans-Retinoic Acid]
[1]; Th17 promoting conditions, relative to control mouse IgG (FIG. 56)
  IL-17A expression (ELISA, day 4): reduced IL-17A expression
[1]; murine B7-H4-Ig 10 μg/mL or RA 10 μM (b737 prints 10 mM) added day 0, day 1 or day 2 of 4 day culture (FIG. 53)
  IL-17A inhibition by time of addition: inhibited IL-17A most potently when added at the beginning of the assay (day 0)

## O=P1(N(CCCl)CCCl)NCCCO1 (centres unmarked) [CTX, Cyclophosphamide]
MRL/lpr mice; mouse age 4 weeks (pre-treatment)
  dsDNA autoantibody (OD450 normalized against positive control diluted at 1:10000): 0.15 and 0.46 and 0.05 and 0.09 and 0.01
MRL/lpr mice; mouse age 7 weeks
  dsDNA autoantibody (OD450 normalized against positive control diluted at 1:10000): 0.55 and 0.21 and 1.07 and 0.10 (2×)
MRL/lpr mice; mouse age 8 weeks
  dsDNA autoantibody (OD450 normalized against positive control diluted at 1:10000): 2.50 and 0.33 and 2.03 and 0.17 and 0.06
MRL/lpr mice; mouse age 9 weeks
  dsDNA autoantibody (OD450 normalized against positive control diluted at 1:10000): 3.46 and 2.09 and 2.26 and 0.79 and 0.26
MRL/lpr mice; mouse age 10 weeks
  dsDNA autoantibody (OD450 normalized against positive control diluted at 1:10000): 1.50 and 4.05 and 2.95 and 1.97 and 0.39
MRL/lpr mice; mouse age 11 weeks
  dsDNA autoantibody (OD450 normalized against positive control diluted at 1:10000): 2.97 and 4.67 and 3.75 and 2.21 and 0.55
MRL/lpr mice; mouse age 15 weeks
  dsDNA autoantibody (OD450 normalized against positive control diluted at 1:10000): 2.93 and 4.87 and 2.62 and 1.76 and 1.11
MRL/lpr mice; mouse age 19 weeks
  dsDNA autoantibody (OD450 normalized against positive control diluted at 1:10000): 2.61 and 11.76 and 3.05 and 2.58 and 1.26

## Syngis
DBA/1 mice [2]; Study Day 20
  AA#80 CIA disease scores: 4 (3×) and 1 and 2 (2×) and 5 and 3 and 6
DBA/1 mice [2]; Study Day 22
  AA#80 CIA disease scores: 5 (4×) and 2 (2×) and 4 (2×) and 8
DBA/1 mice [2]; Study Day 24
  AA#80 CIA disease scores: 5 (4×) and 6 (3×) and 3 and 8
DBA/1 mice [2]; Study Day 27
  AA#80 CIA disease scores: 6 (4×) and 4 (2×) and 5 and 7 and 8
DBA/1 mice [2]; Study Day 29
  AA#80 CIA disease scores: 6 (2×) and 5 (4×) and 4 and 7 and 11
DBA/1 mice [2]; Study Day 31
  AA#80 CIA disease scores: 8 (3×) and 5 and 6 (3×) and 3 and 11
DBA/1 mice [2]; Study Day 34
  AA#80 CIA disease scores: 10 and 7 (2×) and 8 (4×) and 6 and 11
DBA/1 mice [2]; Study Day 36
  AA#80 CIA disease scores: 10 and 8 (5×) and 7 and 11 and 13
DBA/1 mice [2]; Study Day 38
  AA#80 CIA disease scores: 11 (2×) and 6 (2×) and 8 and 7 (2×) and 10 (2×) and 12
DBA/1 mice [2]; Study Day 41
  AA#80 CIA disease scores: 12 and 13 (2×) and 7 and 8 and 9 and 10 (2×) and 14
DBA/1 mice [2]; Study Day 44
  AA#80 CIA disease scores: 10 and 14 and 7 (3×) and 8 and 11 and 12 and 13
DBA/1 mice [3]; AA#79, Study Day 12, individual mouse (Tag#)
  CIA disease score: 0 (2×) and 1 (3×) and 2
DBA/1 mice [3]; AA#79, Study Day 18, individual mouse (Tag#)
  CIA disease score: 2 (4×) and 1 (2×)
DBA/1 mice [3]; AA#79, Study Day 22, individual mouse (Tag#)
  CIA disease score: 4 and 2 (4×) and 3
DBA/1 mice [3]; AA#79, Study Day 25, individual mouse (Tag#)
  CIA disease score: 2 (4×) and 5 and 3
DBA/1 mice [3]; AA#79, Study Day 27, individual mouse (Tag#)
  CIA disease score: 5 (2×) and 7 and 4 (2×) and 6
DBA/1 mice [3]; AA#79, Study Day 29, individual mouse (Tag#)
  CIA disease score: 6 (3×) and 5 and 4 and 10
DBA/1 mice [3]; AA#79, Study Day 32, individual mouse (Tag#)
  CIA disease score: 10 and 9 (2×) and 7 and 8
DBA/1 mice [3]; AA#79, Study Day 34, individual mouse (Tag#)
  CIA disease score: 10 (2×) and 9 (2×) and 6
DBA/1 mice [3]; AA#79, Study Day 36, individual mouse (Tag#)
  CIA disease score: 11 (2×) and 9 (2×) and 10 and 8
DBA/1 mice [3]; AA#79, Study Day 39, individual mouse (Tag#)
  CIA disease score: 11 (2×) and 8 and 6 and 9 and 12
DBA/1 mice [3]; AA#79, Study Day 41, individual mouse (Tag#)
  CIA disease score: 12 and 10 (2×) and 13 and 6 and 11
DBA/1 mice [3]; AA#79, Study Day 43, individual mouse (Tag#)
  CIA disease score: 12 (2×) and 11 (2×) and 6 and 10
DBA/1 mice [3]; AA#79, Study Day 46, individual mouse (Tag#)
  CIA disease score: 14 (2×) and 11 and 12 and 6 and 10
DBA/1 mice [3]; AA#79, Study Day 48, individual mouse (Tag#)
  CIA disease score: 13 (3×) and 11 and 5 and 12
DBA/1 mice [3]; AA#79, Study Day 50, individual mouse (Tag#)
  CIA disease score: 11 (2×) and 12 (3×) and 9
DBA/1 mice [3]; AA#79, Study Day 54, individual mouse (Tag#)
  CIA disease score: 13 (2×) and 12 (3×) and 8
DBA/1 mice [3]; AA#79, Study Day 57, individual mouse (Tag#)
  CIA disease score: 13 (2×) and 14 and 7 and 12 and 15
